In patent US11548900B2, “Oxazino-quinazoline and oxazino-quinoline type compound, preparation method and uses thereof” (BEIJING SCITECH-MQ PHARMACEUTICALS LIMITED, priority 2018, dated 2023):

Key:
BT474 cells = assay: Inhibition of cell proliferation, BT474 (CCK-8, 72 h); assay type: cell-based; settings: Homo sapiens, BT-474, 72 h incubation
Method in brief: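 BT474 and HCC827 seeded at 10,000 and 3000 cells/well respectively, cultured overnight, then exposed to 10-point 3-fold compound dilutions (top stock 10 mM; 0.25% DMSO final) for 72 h. Viability by CCK-8, OD450; survival normalised to untreated and cell-free blanks, IC50 from curve fit.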

HCC827 cells = assay: Inhibition of cell proliferation, HCC827 (CCK-8, 72 h); assay type: cell-based; settings: Homo sapiens, 72 h incubation
Protocol: The assay for the inhibition of cell proliferation by small molecular compounds was carried out using the method as follows:
1. 600 μL pancreatin was added to a T75 cell culture flask, which was digested in a 37° C. incubator for about 1 min before 5 mL of DMEM complete culture solution was added, blew evenly, transferred to a 15 mL centrifuge tube, and centrifuged at 1000 rpm for 4 min;
2. The supernatant was removed and 5 mL DMEM complete culture solution was added, blew evenly, and 10 μL cell suspension was taken and mixed with 10 μL 0.4% Trypan Blue, and counted using a cell counter;
3. BT474 and HCC827 cell lines were seeded in 96-well plates at a cell density of 10,000 and 3000 cells/well/80 μL, respectively, and cultured overnight. Only sterile water was added to the 36 wells on the periphery of the 96-well plate without adding cells, and only the 60 wells in the center of the 96-well plate were used for cell assays and controls;
4. Dilution of compounds: the compounds were diluted with a 3-fold dilution to make 10 concentrations in total with an initial concentration of 10 mM;
5. 20 μL of different compounds with different concentrations were added to each well, and 20 μL of complete culture solution was added to the remaining wells. The final concentration of DMSO in each well is 0.25%;
6. After 72 h of incubation, 10 μL CCK-8 reagent was added to each well, and incubated at 37° C. for 1-2 h; and the OD value was read at 450 nm;
7. Cell survival rate (%)=[(As−Ab)/(Ac−Ab)]*100%
As: Assay well (medium containing cell, CCK-8, compound)
Ac: Control well (medium containing cell, CCK-8)
Ab: Blank well (CCK-8, medium without cell and compound)
8. The value was imported into Graphpad Prism5 software for the calculation of IC50s (compound concentration at which 50% maximum survival rate is observed).

HER2 kinase = HER2 kinase (Homo sapiens (Human), UniProt P04626); assay: Inhibition of HER2 kinase activity (ULight-labeled PolyGT substrate); assay type: biochemical; settings: HER2 kinase 10 nM, ATP 10 μM, 2 hours
Sequence of HER2 kinase (P04626 23-1255): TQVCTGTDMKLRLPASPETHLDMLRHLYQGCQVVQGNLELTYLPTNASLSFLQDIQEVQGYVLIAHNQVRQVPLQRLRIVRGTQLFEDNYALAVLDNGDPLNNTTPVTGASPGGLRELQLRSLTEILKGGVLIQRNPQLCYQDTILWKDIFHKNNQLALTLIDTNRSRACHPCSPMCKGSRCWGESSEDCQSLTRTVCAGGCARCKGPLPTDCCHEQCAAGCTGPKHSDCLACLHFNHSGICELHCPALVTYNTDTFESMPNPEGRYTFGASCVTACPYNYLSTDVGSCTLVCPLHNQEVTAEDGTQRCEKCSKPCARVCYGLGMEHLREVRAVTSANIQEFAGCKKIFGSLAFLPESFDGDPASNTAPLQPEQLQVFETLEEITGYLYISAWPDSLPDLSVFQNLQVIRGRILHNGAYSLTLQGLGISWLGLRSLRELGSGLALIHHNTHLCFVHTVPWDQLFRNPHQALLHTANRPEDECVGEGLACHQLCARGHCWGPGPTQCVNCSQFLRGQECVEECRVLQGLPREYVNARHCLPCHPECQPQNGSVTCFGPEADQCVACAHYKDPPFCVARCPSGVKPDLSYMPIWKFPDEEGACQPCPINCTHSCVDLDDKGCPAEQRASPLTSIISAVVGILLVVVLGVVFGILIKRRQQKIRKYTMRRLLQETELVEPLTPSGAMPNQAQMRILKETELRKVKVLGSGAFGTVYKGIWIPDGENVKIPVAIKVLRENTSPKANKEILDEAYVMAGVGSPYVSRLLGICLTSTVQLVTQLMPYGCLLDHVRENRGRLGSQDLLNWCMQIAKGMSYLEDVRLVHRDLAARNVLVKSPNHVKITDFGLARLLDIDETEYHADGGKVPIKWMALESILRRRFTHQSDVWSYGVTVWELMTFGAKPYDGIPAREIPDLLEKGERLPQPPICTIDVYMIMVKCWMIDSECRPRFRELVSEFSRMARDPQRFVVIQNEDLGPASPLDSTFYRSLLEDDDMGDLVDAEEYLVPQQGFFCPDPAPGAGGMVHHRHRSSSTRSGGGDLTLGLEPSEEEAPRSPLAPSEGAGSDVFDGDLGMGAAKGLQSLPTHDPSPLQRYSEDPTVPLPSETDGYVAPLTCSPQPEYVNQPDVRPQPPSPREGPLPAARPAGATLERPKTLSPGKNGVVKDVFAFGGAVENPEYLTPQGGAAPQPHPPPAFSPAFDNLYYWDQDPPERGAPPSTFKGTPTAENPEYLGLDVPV
Method in brief: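 Eleven-point 3-fold dilutions (0.042 nM–2.5 μM final, 1% DMSO) tested in duplicate against 10 nM HER2 with 100 nM ULight-labelled PolyGT and 10 μM ATP. Reaction ran 2 h at RT after 5 min pre-incubation; 665/615 nm TR-FRET ratio used to derive inhibition and IC50.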

EGFR kinase = EGFR kinase (Homo sapiens (Human), UniProt P00533); assay: Inhibition of EGFR kinase activity (ULight-labeled JAK-1 (Tyr1023) peptide substrate); assay type: biochemical; settings: EGFR kinase 0.35 nM, ATP 150 μM, 2 hours
Sequence of EGFR kinase (P00533 25-1210): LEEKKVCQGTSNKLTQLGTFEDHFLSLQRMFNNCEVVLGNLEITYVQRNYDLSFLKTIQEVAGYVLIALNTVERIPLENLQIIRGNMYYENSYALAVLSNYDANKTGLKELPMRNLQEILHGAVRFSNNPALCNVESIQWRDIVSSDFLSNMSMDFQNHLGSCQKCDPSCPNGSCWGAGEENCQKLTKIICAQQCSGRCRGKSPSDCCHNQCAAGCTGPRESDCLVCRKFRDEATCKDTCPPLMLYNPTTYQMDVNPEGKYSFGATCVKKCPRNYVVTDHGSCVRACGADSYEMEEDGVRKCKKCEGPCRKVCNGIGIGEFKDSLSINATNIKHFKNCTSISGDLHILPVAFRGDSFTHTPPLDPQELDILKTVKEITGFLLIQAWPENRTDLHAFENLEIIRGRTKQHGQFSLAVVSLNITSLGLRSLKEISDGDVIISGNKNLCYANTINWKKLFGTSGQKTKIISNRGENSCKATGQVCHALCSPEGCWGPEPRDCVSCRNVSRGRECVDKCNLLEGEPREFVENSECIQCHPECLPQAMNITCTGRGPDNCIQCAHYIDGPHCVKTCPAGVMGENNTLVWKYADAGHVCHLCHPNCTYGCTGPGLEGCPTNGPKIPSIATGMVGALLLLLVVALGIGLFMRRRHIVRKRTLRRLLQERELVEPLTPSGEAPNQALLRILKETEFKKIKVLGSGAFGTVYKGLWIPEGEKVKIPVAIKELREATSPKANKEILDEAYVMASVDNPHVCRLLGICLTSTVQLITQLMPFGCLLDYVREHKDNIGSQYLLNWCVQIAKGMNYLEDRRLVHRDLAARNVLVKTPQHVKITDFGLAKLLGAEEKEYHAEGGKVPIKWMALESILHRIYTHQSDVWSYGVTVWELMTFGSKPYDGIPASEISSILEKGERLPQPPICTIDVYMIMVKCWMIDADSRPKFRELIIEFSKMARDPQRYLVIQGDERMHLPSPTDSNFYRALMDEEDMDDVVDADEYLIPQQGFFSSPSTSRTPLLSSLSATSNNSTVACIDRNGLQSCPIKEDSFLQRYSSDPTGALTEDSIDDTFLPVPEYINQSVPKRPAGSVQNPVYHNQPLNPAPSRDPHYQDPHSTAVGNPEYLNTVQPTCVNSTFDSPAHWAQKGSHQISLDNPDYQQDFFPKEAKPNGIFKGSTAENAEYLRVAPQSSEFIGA
Method in brief: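 TR-FRET kinase assay: 0.35 nM EGFR, 150 μM ATP, 100 nM substrate, 2 h at room temperature in the dark after 5 min enzyme-compound preincubation, 1% DMSO. Compounds tested as 11-point 3-fold series, 2.5 μM to 0.042 nM final, duplicate; IC50 from 665/615 nm ratio-based inhibition.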

IC50 (BT474 cells) [nM] | IC50 (HCC827 cells) [nM] | IC50 (HER2 kinase) [nM] | IC50 (EGFR kinase) [nM] | SMILES
≤ 50 | 500 to 5000 | ≤ 50 | ≤ 50 | CN(C)C/C=C/C(=O)N1CCOc2c1ccc1ncnc(Nc3ccc(Oc4ccccc4)cc3)c21 [Example 44, (E)-4-(dimethylamino)-1-(10-((4-phenoxyphenyl)amino)-2,3-dihydro-4H-[1,4]oxazino[2,3-f]quinazolin-4-yl)but-2-en-1-one]
≤ 50 | 50 to 500 | ≤ 50 | ≤ 50 | CN(C)C/C=C/C(=O)N1CCOc2c1ccc1ncnc(Nc3ccc(OCc4ccccn4)c(Cl)c3)c21 [Example 46, (E)-1-(10-((3-chloro-4-(pyridin-2-ylmethoxy)phenyl)amino)-2,3-dihydro-4H-[1,4]oxazino[2,3-f]quinazolin-4-yl)-4-(dimethylamino)but-2-en-1-one]
≤ 50 | 500 to 5000 | ≤ 50 | ≤ 50 | Cc1cccc(Oc2ccc(Nc3ncnc4ccc5c(c34)OCCN5C(=O)/C=C/CN(C)C)cc2)c1 [Example 47, (E)-4-(dimethylamino)-1-(10-((4-(m-tolyloxy)phenyl)amino)-2,3-dihydro-4H-[1,4]oxazino[2,3-f]quinazolin-4-yl)but-2-en-1-one]
50 to 500 | 500 to 5000 | ≤ 50 | ≤ 50 | CN(C)C/C=C/C(=O)N1CCOc2c1ccc1ncnc(Nc3ccc(Oc4cccc(Cl)c4)cc3)c21 [Example 48, (E)-4-(dimethylamino)-1-(10-((4-(3-chlorophenoxy)phenyl)amino)-2,3-dihydro-4H-[1,4]oxazino[2,3-f]quinazolin-4-yl)but-2-en-1-one]
≤ 50 | 50 to 500 | ≤ 50 | ≤ 50 | CN(C)C/C=C/C(=O)N1CCOc2c1ccc1ncnc(Nc3ccc(Oc4cccc(F)c4)cc3)c21 [Example 49, (E)-4-(dimethylamino)-1-(10-((4-(3-fluorophenoxy)phenyl)amino)-2,3-dihydro-4H-[1,4]oxazino[2,3-f]quinazolin-4-yl)but-2-en-1-one]
≤ 50 | 500 to 5000 | ≤ 50 | ≤ 50 | CN(C)C/C=C/C(=O)N1CCOc2c1ccc1ncnc(Nc3ccc(Oc4ccccc4F)cc3)c21 [Example 50, (E)-4-(dimethylamino)-1-(10-((4-(2-fluorophenoxy)phenyl)amino)-2,3-dihydro-4H-[1,4]oxazino[2,3-f]quinazolin-4-yl)but-2-en-1-one]
≤ 50 | 500 to 5000 | ≤ 50 | ≤ 50 | CN(C)C/C=C/C(=O)N1CCOc2c1ccc1ncnc(Nc3ccc(Oc4ccc(F)cc4)cc3)c21 [Example 51, (E)-4-(dimethylamino)-1-(10-((4-(4-fluorophenoxy)phenyl)amino)-2,3-dihydro-4H-[1,4]oxazino[2,3-f]quinazolin-4-yl)but-2-en-1-one]
≤ 50 | 500 to 5000 | ≤ 50 | ≤ 50 | COc1ccccc1Oc1ccc(Nc2ncnc3ccc4c(c23)OCCN4C(=O)/C=C/CN(C)C)cc1 [Example 53, (E)-4-(dimethylamino)-1-(10-((4-(2-methoxyphenoxy)phenyl)amino)-2,3-dihydro-4H-[1,4]oxazino[2,3-f]quinazolin-4-yl)but-2-en-1-one]
≤ 50 | 500 to 5000 | ≤ 50 | 500 to 5000 | CN(C)C/C=C/C(=O)N1CCOc2c1ccc1ncnc(Nc3ccc(Oc4cccnc4)cc3)c21 [Example 54]
≤ 50 | 500 to 5000 | ≤ 50 | ≤ 50 | COc1cccc(Oc2ccc(Nc3ncnc4ccc5c(c34)OCCN5C(=O)/C=C/CN(C)C)cc2)c1 [Example 56, (E)-4-(dimethylamino)-1-(10-((4-(3-methoxyphenoxy)phenyl)amino)-2,3-dihydro-4H-[1,4]oxazino[2,3-f]quinazolin-4-yl)but-2-en-1-one]
≤ 50 | 500 to 5000 | ≤ 50 | 50 to 500 | CN(C)C/C=C/C(=O)N1CCOc2c1ccc1ncnc(Nc3ccc(Oc4nccs4)cc3)c21 [Example 57, (E)-4-(dimethylamino)-1-(10-((4-(thiazol-2-yloxy)phenyl)amino)-2,3-dihydro-4H-[1,4]oxazino[2,3-f]quinazolin-4-yl)but-2-en-1-one]
≤ 50 | 500 to 5000 | ≤ 50 | ≤ 50 | CN(C)C/C=C/C(=O)N1CCOc2c1ccc1ncnc(Nc3ccc(Oc4ccccc4)c(Cl)c3)c21 [Example 59, (E)-4-(dimethylamino)-1-(10-((3-chloro-4-phenoxyphenyl)amino)-2,3-dihydro-4H-[1,4]oxazino[2,3-f]quinazolin-4-yl)but-2-en-1-one]
≤ 50 | 50 to 500 | ≤ 50 |  | CN(C/C=C/C(=O)N1CCOc2c1ccc1ncnc(Nc3ccc(OCc4ccccn4)c(Cl)c3)c21)C1CC1 [Example 100, (E)-1-(10-((3-chloro-4-(pyridin-2-ylmethoxy)phenyl)amino)-2,3-dihydro-4H-[1,4]oxazino[2,3-f]quinazolin-4-yl)-4-(cyclopropyl(methyl)amino)but-2-en-1-one]
≤ 50 | 50 to 500 | ≤ 50 |  | CC(C)NC/C=C/C(=O)N1CCOc2c1ccc1ncnc(Nc3ccc(OCc4ccccn4)c(Cl)c3)c21 [Example 102, (E)-1-(10-((3-chloro-4-(pyridin-2-ylmethoxy)phenyl)amino)-2,3-dihydro-4H-[1,4]oxazino[2,3-f]quinazolin-4-yl)-4-(isopropylamino)but-2-en-1-one]
≤ 50 | 50 to 500 | ≤ 50 |  | O=C(/C=C/CN1CCOCC1)N1CCOc2c1ccc1ncnc(Nc3ccc(OCc4ccccn4)c(Cl)c3)c21 [Example 103, (E)-1-(10-((3-chloro-4-(pyridin-2-ylmethoxy)phenyl)amino)-2,3-dihydro-4H-[1,4]oxazino[2,3-f]quinazolin-4-yl)-4-morpholinobut-2-en-1-one]
≤ 50 | 50 to 500 | ≤ 50 |  | O=C(/C=C/CNC1CCC1)N1CCOc2c1ccc1ncnc(Nc3ccc(OCc4ccccn4)c(Cl)c3)c21 [Example 109, (E)-1-(10-((3-chloro-4-(pyridin-2-ylmethoxy)phenyl)amino)-2,3-dihydro-4H-[1,4]oxazino[2,3-f]quinazolin-4-yl)-4-(cyclobutylamino)but-2-en-1-one]
≤ 50 | 50 to 500 | ≤ 50 |  | CN1CCC[C@H]1/C=C/C(=O)N1CCOc2c1ccc1ncnc(Nc3ccc(OCc4ccccn4)c(Cl)c3)c21 [Example 112, (S,E)-1-(10-((3-chloro-4-(pyridin-2-ylmethoxy)phenyl)amino)-2,3-dihydro-4H-[1,4]oxazino[2,3-f]quinazolin-4-yl)-3-(1-methylpyrrolidin-2-yl)prop-2-en-1-one]
50 to 500 | 500 to 5000 | ≤ 50 |  | CC#CC(=O)N1CCOc2c1ccc1ncnc(Nc3ccc(OCc4ccccn4)c(Cl)c3)c21 [Example 113, 1-(10-((3-chloro-4-(pyridin-2-ylmethoxy)phenyl)amino)-2,3-dihydro-4H-[1,4]oxazino[2,3-f]quinazolin-4-yl)but-2-yne-1-one]
≤ 50 | 50 to 500 | ≤ 50 |  | CC1(O)CCN(C/C=C/C(=O)N2CCOc3c2ccc2ncnc(Nc4ccc(OCc5ccccn5)c(Cl)c4)c32)CC1 [Example 116, (E)-1-(10-((3-chloro-4-(pyridin-2-ylmethoxy)phenyl)amino)-2,3-dihydro-4H-[1,4]oxazino[2,3-f]quinazolin-4-yl)-4-(4-hydroxyl-4-methylpiperidin-1-yl)but-2-en-1-one]
≤ 50 | 50 to 500 | ≤ 50 |  | COCCN(C)C/C=C/C(=O)N1CCOc2c1ccc1ncnc(Nc3ccc(OCc4ccccn4)c(Cl)c3)c21 [Example 119, (E)-1-(10-((3-chloro-4-(pyridin-2-ylmethoxy)phenyl)amino)-2,3-dihydro-4H-[1,4]oxazino[2,3-f]quinazolin-4-yl)-4-((2-methoxyethyl)(methyl)amino)but-2-en-1-one]
